Data as given in patent publication US20170107235A1, “PYRROLOBENZ[…] FOR TREATING LYMPHOMA” (ADC PRODUCTS (UK) LIMITED, priority 2014, published 2017).
Where “and” joins values, the source holds several entries; their conditions need not be identical. Equal values may be shown once.

System: dogs with spontaneous malignancies (lymphoma)
Assay: Phase Ia clinical trial of SG2000 in dogs with spontaneous malignancies (lymphoma patients)
Type: in vivo
Set-up: key to Response during first cycle / Response to SG2000: Complete response (CR) is defined as the disappearance of all target lesions; Partial response (PR) is defined as a >30% decrease in the sum of the longest dimensions of the target lesions; Progressive disease (PD) is defined as a >20% increase in the sum of the longest dimensions of the target lesions; Stable Disease (SD) is defined as neither sufficient shrinkage to qualify for PR nor sufficient increase to qualify for PD
Protocol: A Phase Ia clinical trial in dogs with spontaneous malignancies was undertaken at the Royal Veterinary College, University of London, UK.
was supplied in 5 mL vials, wherein each mL contains 10 micrograms of SG2000 and 47.1 mg of dimethylacetamide. For doses below 100 microgram, the required volume of SG2000 was diluted to 10 ml with normal saline (0.9% sodium chloride) prior to administration. If the total dose exceeds 100 micrograms, the supplied solution was used without prior dilution with normal saline.
SG2000 was administered as a slow intravenous infusion into a peripheral vein. The drug was be administered slowly IV over 20 minutes via a peripheral vein catheter. If the drug has been diluted to a total volume of 10 ml, this will mean injecting 0.5 ml per minute.
The following concomitant/supportive medications permitted during the trial were:
The following definitions are used in reporting the results:
Complete response (CR) is defined as the disappearance of all target lesions.
Partial response (PR) is defined as a >30% decrease in the sum of the longest dimensions of the target lesions, taking as a reference the baseline sum longest dimensions.
Progressive disease (PD) is defined as a >20% increase in the sum of the longest dimensions of the target lesions, taking as a reference the smallest sum of the longest dimensions recorded since the treatment started, or the appearance of 1 or more new lesions.
Stable Disease (SD) is defined as neither sufficient shrinkage to qualify for PR nor sufficient increase to qualify for PD, taking as a reference the smallest sum of the longest dimensions since the treatment started.
Objective Response Rate (ORR) is defined as the number of patients with confirmed complete or partial responses, expressed as a percentage of all patients treated with SG2000
Time to Progression (TTP) is defined as the period of time from first date of treatment to the date that the patient is withdrawn because of clinical or imaging-based progressive disease, or death from any cause (including euthanasia).
“Duration of Response” is defined for patients with an objective response only.
This patient, diagnosed with multicentric B-cell high grade lymphoma, had been previously treated with 5 protocols. This patient was treated for a first cycle (3 weeks) with IV 1.75 μg/kg SG2000 solution with a single weekly dose. […] The second cycle of treatment followed with IV 2.00 μg/kg SG2000 with a single weekly dose. The third cycle of weekly dosing was begun after a single week break, with doses of 2.00 μg/kg SG2000, 1.75 μg/kg SG2000 and 2.00 μg/kg SG2000.
Patients 2 to 9 were treated as follows, with the stated amount of SG2000 (μg/kg), with a 3 weekly cycle of weekly treatments, and a single break week between cycles.
Patients 2, 4-5 were diagnosed with multicentric B-cell high grade lymphoma, Patients 3, 8 and 9 were diagnosed with multicentric B-cell intermediate grade lymphoma and Patient 6 was diagnosed with multicentric T-cell high grade lymphoma. Patient 7 was diagnosed with multicentric and mediastinal high grade lymphoma, which was suspected to be to be T-cell lymphoma.

[1] = Patient 1, dog, multicentric B-cell high grade lymphoma
[2] = Patient 1, dog, multicentric B-cell high grade lymphoma, IV 1.75-2.00 μg/kg weekly, 3 cycles
[3] = dogs with multicentric lymphoma, Patients 2 to 9, IV 1.5-2 μg/kg weekly

C=C1C[C@H]2C=Nc3cc(OCCCOc4cc5c(cc4OC)C(=O)N4CC(=C)C[C@H]4C=N5)c(OC)cc3C(=O)N2C1 [SG2000]
Progression free interval with treatment [1]: 111 days
Survival time since the start of the SG2000 trial [1]: 126 days
Patient response at the end of the planned 3 cycles [2]: PD (Progressive disease (PD) is defined as a >20% increase in the sum of the longest dimensions of the target lesions)
Toxicity at the end of the planned 3 cycles [2]: grade 4 anaemia
Disease course in the planned three week break after first cycle (Patient 1, dog, multicentric B-cell high grade lymphoma, after first cycle IV 1.75 μg/kg weekly): the disease progressed
Response during first cycle (Patient 1, dog, multicentric B-cell high grade lymphoma, first cycle (3 weeks) IV 1.75 μg/kg single weekly dose): SD
Survival time from diagnosis (Patient 1, dog, multicentric B-cell high grade lymphoma, previously treated with 5 protocols): 408 days
Progression free interval [3]: 10 d (2×) and 56 d and 54 d and 7 d and 158 d and 43 d
Survival time from SG2000 start [3]: 24 days and 74 days and 16 days and 95 days and 8 days and 195 days and 49 days
Survival time from diagnosis [3]: 31 days and 186 days and 252 days and 336 days and 141 days and 811 days and 138 days
Response to SG2000 (dogs with multicentric lymphoma, Patients 2 to 9, IV 1.5-2 μg/kg weekly, 3 weekly cycles): PD (Progressive disease (PD) is defined as a >20% increase in the sum of the longest dimensions of the target lesions) (3×) and SD (2×) and PR (Partial response (PR) is defined as a >30% decrease in the sum of the longest dimensions of the target lesions) (2×) and CR
